Results: patent publication US5118704A, “Substituted 2-aminotetralins useful as dopaminergics” (Whitby Research, Inc., priority 1991, dated 1992)
Read-outs that look alike come from different tables or passages of the source.

Key:
dopamine receptor = conditions: prior art, result in words; cited from earlier work
dopamine D1 receptors = molecular target: T1, dopamine D1 receptors (Bos taurus, UniProt Q95136); test: Radioligand binding to dopamine D1 receptors ([3H]-SCH23390, bovine caudate nuclei membranes)
T1 construct: membranes derived from bovine caudate nuclei assay were employed; from tissue; host or cells: bovine caudate nuclei membranes (brains from a local slaughterhouse)
Experimental: (§1) To test the selectivity and specificity of the present compounds for binding to dopamine receptors, tests were conducted using the following standard procedures.
(§2) To test binding to dopamine receptors, membranes derived from bovine caudate nuclei assay were employed. Bovine brains were obtained fresh from a local slaughterhouse. The caudate nuclei were dissected out and homogenized in Buffer A (50 mM Tris; 1 mM Na2 -EDTA; 5 mM KCl; 1 mM MgCl2; 2 mM CaCl2; pH 7.4) using a Brinkman Polytron. The homogenate was centrifuged at 40,000 × g for 20 minutes and washed once. The pellett was resuspended in Buffer A, incubated at 37° C. for 15 minutes, then centrifuged. The pellet was washed once more, resuspended to a protein concentration of 5-10 mg/ml in Buffer A and frozen at -70° C. until used.
(§3) The following tritiated drugs were used as radioligands for each of the receptors tested: [^3 H]-Spiperone 21-24 Ci/mmol for D2 receptors, [^3 H]-SCH23390 75-85 Ci/mmol for D1 receptors, and [^3 H]-Para aminoclonidine 48-52 Ci/mmol for α2 -adrenergic receptors. The radio-ligands were incubated with various concentrations of competing drug and the appropriate membrane source for periods of time as follows: 75 minutes at room temperature for D2 receptors, 30 minutes at 37° C. for D1 receptors, or 30 minutes at room temperature for α2 receptors. Specific binding was defined using 1μM butaclamol (D2), 1 μM SCH23390 (D1), or 1 μM yohimbine (α2). In addition the D2 assays contained 30 nM ketaserin in order to block the binding of ^3 H-spiperone to 5HT2 receptors.
(§4) The assays were terminated by filtration using a 24-port Brandell cell harvester over filters that had been previously soaked in 0.1% polyethyleneimine, and the filters were washed three times by filtration of cold buffer. The filters were then placed in 5 ml scintillation vials to which 4 ml of Beckman Ready-Protein was then added, and each vial was counted for 2 minutes in a Beckman 3801 scintillation counter calibrated for conversion of cpm to dpm. Binding data were analyzed using the Ligand program of Munson and Rodbard (1980). The results are presented as Ki values if the data were best fitted to a one-site model, or as KH and KL values if a two-site model produced the better fit.

dopamine D2 receptors = molecular target: T2, dopamine D2 receptors (Bos taurus, UniProt P20288); test: Radioligand binding to dopamine D2 receptors ([3H]-Spiperone, bovine caudate nuclei membranes); conditions: for affinity and selectivity for dopamine D2 receptors (in words): result in words
T2 construct: membranes derived from bovine caudate nuclei assay were employed; from tissue; host or cells: bovine caudate nuclei membranes (brains from a local slaughterhouse)
Experimental: as §1, §2, §3, §4

α2-adrenergic receptors = molecular target: T3, α2-adrenergic receptors (Rattus norvegicus, UniProt P22909); test: Radioligand binding to α2-adrenergic receptors ([3H]-Para aminoclonidine, rat cerebral cortex membranes)
T3 construct: rat cerebral cortex membranes were employed as a source of receptors; from tissue; host or cells: cerebral cortex membranes of male Sprague Dawley rats
T3 sequence (P22909 1-465): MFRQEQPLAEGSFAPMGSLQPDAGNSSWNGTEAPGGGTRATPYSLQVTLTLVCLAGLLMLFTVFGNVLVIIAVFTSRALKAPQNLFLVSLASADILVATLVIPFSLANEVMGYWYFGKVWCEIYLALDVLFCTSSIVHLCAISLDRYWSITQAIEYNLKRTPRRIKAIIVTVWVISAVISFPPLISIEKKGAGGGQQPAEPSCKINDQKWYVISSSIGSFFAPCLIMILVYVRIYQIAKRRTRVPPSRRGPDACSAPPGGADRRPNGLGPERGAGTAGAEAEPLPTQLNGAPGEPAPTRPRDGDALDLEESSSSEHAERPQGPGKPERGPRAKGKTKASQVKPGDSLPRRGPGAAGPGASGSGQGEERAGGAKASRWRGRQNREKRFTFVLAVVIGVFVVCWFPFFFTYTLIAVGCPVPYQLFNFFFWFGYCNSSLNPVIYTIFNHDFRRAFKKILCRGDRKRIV
Experimental: as §1
To test binding of the compounds to α2 -adrenergic receptors, rat cerebral cortex membranes were employed as a source of receptors. Male Sprague Dawley rats were killed by decapitation and the brains removed. The cerebral cortices were homogenized in 50 mM Tris; 2 mM MgCl2 (pH 7.4), and centrifuged at 40,000 × g for 10 minutes. The pellet was washed once, resuspended in Tris/MgCl2 and incubated with 8 units/ml adenosine deaminase at 37° C. for 30 minutes. The homogenate was centrifuged, washed once, resuspended to a protein concentration of 5-10 mg/ml and frozen at -70° C. until use.
as §3, §4

dopamine D2 = conditions: result in words; cited from earlier work
[1] = [3H]-SCH23390, bovine caudate membranes, 30 minutes at 37° C., read-out: RECEPTOR AFFINITIES Ki, D1 (KL)
[2] = [3H]-Spiperone, bovine caudate membranes, 75 minutes at room temperature, 30 nM ketaserin, read-out: RECEPTOR AFFINITIES Ki, D2 (KL)
[3] = [3H]-Para aminoclonidine, rat cerebral cortex membranes, 30 minutes at room temperature, read-out: RECEPTOR AFFINITIES Ki, α2

T1 sequence (Q95136 whole entry): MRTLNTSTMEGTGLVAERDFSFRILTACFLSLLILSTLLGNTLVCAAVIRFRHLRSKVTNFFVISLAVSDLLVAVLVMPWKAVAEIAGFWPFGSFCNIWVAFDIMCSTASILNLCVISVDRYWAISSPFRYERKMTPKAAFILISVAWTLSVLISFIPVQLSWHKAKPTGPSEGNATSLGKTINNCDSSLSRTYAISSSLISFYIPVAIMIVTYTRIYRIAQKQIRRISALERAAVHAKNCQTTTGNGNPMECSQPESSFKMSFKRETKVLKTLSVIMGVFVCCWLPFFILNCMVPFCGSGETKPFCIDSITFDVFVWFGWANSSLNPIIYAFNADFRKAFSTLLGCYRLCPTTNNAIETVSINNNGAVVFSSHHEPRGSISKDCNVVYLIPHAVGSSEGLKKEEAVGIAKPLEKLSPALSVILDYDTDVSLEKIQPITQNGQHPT
T2 sequence (P20288 whole entry): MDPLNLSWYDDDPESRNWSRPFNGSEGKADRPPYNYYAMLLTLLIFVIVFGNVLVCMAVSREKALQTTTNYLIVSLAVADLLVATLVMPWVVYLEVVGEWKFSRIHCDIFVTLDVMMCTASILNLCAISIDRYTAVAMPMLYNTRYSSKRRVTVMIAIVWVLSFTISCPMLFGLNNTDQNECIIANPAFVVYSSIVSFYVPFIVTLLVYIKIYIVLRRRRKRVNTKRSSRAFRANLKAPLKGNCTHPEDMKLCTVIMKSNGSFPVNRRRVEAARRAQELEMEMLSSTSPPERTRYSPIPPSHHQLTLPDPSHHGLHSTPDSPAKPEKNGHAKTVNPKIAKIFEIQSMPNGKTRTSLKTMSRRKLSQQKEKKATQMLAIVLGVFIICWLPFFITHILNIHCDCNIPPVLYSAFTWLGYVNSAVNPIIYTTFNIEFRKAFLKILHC

| Compound | Ki (dopamine D1 receptors; [1]) | Ki (dopamine D2 receptors; [2]) | Ki (α2-adrenergic receptors; [3]) | also measured |
| --- | --- | --- | --- | --- |
| CN1CCc2cccc3c2[C@H]1Cc1ccc(O)c(O)c1-3 [apomorphine] | – | – | – | dopaminergic activity (in words) (dopamine receptor): high activity |
| CCCN(CCN1C(=O)c2ccccc2C1=O)C1CCc2c(O)cccc2C1 (stereo not shown) [Example 13, 2-[2-[propyl(1,2,3,4-tetrahydro-5-hydroxy-2-naphthalenyl)amino]ethyl]-1H-isoindole-1,3(2H)-dione] | 14000 nM | 1260 nM | 10000 nM | – |
| CCCN(CCCN1C(=O)c2ccccc2C1=O)C1CCc2c(O)cccc2C1 (stereo not shown) [Example 10, 2-[3-[propyl(1,2,3,4-tetrahydro-5-hydroxy-2-naphthalenyl)amino]propyl]-1H-isoindole-1,3(2H)-dione] | 3230 nM | 1260 nM | 142 nM | – |
| CCCN(CCc1cccs1)C1CCc2c(O)cccc2C1 (racemic) [Example N-0437, reference compound] | – | – | – | dopamine D2 agonist potency (in words) (dopamine D2): potent dopamine D2 agonist; Ki (dopamine D1 receptors): 1000 nM; Ki (dopamine D2 receptors): 110 nM; Ki (α2-adrenergic receptors): 190 nM |
| CCCN(CCn1c(C)ccc1C)C1CCc2c(O)cccc2C1 (stereo not shown) [Example 4, 6-[[2-(2,5-dimethyl-1H-pyrrol-1-yl)ethyl]propylamino]-5,6,7,8-tetrahydro-1-naphthalenol] | 10000 nM | 100 nM | 1400 nM | – |
| CCCN(CCCN1Cc2ccccc2C1)C1CCc2c(O)cccc2C1 (stereo not shown) [Example 11, 6-[[3-(1,3-dihydro-2H-isoindol-2-yl)propyl]propylamino]-5,6,7,8-tetrahydro-1-napththalenol] | 3000 nM | 720 nM | 1130 nM | – |
| CCCN(CCN1Cc2ccccc2C1)C1CCc2c(O)cccc2C1 (stereo not shown) [Example 14, 6[[2-(1,3-dihydro-2H-isoindol-2-yl)ethyl]propylamino]-5,6,7,8-tetrahydro-1-naphthalenol] | 4860 nM | 52 nM | 2630 nM | – |
| CCCN(CCCn1c(C)ccc1C)C1CCc2c(O)cccc2C1 (stereo not shown) [Example 2] | – | – | – | Ki (dopamine D1 receptors): 2700 nM; Ki (dopamine D2 receptors): 26 nM; affinity and selectivity for dopamine D2 receptors (in words) (dopamine D2 receptors; listed as 2,5-dimethyl-N-propyl-N-(1,2,3,4-tetrahydro-5-hydroxy-2-naphthalenyl)-1H-pyrrole): high affinity and selectivity for binding to D2 dopamine receptors; affinity and selectivity for dopamine D2 receptors (in words) (dopamine D2 receptors; listed as 6-[[3-(2,5-dimethyl-1H-pyrrol-1-yl)propyl]propylamino-5,6,7,8-tetrahydro-1-napht): high affinity and selectivity for binding to dopamine D2 receptors; Ki (α2-adrenergic receptors): 1600 nM |
